Measured values from patent US20210370019A1, “Method of Treatment Using Negative Pressure Renal Therapy and Medicament(s)” (Strataca Systems Limited, priority 2020, published 2021).
Read-outs that look alike come from different tables or passages of the source.

Legend:
[1] = tested on: animal model of hypervolemic tamponade
[2] = tested on: congestion heart failure (HF) model; conditions: for diuresis / natriuresis: furosemide diuresis, No-HF; for filtration fraction: furosemide infusion
[3] = cited from earlier work

NS(=O)(=O)c1cc(C(=O)O)c(NCc2ccco2)cc1Cl [furosemide]
decrease in urine output ([1]; tamponade (CVP approx. 20 mm Hg), continued presence of furosemide, compared to mild congestion state of saline loading): −35% | increase in urine output ([1]; tamponade, negative pressure (−30 mm Hg) in combination with furosemide, beyond the use of diuretics alone): +67% | diuresis ([2]; control kidney (no rNPT)): 11.8 ± 3.7 mL/min | natriuresis ([2]; control kidney (no rNPT)): 1.5 ± 0.5 mmol/min | diuresis ([2]; rNPT kidney (−30 mmHg)): 19.7 ± 4.5 mL/min | natriuresis ([2]; rNPT kidney (−30 mmHg)): 2.4 ± 0.6 mmol/min | filtration fraction ([2]; during rNPT (similar effect between HF and no HF periods)): 55.6±24.8% | filtration fraction ([2]; without rNPT): 49.0±20.8% | increase in renal interstitial pressure ([3]; furosemide administration, as reported): ~7 mmHg | effect on GFR ([3]; known effect of furosemide): can reduce GFR
